These are literature values, as cited in patent US12691079B2, “Biodissolvable film for localized and efficient treatment of vulvodynia” (The University of North Carolina at Chapel Hill, priority 2019, dated 2026).

Structures are written as SMILES.

The subject of this data set is vulvar vestibule. To be noted: topical application to the vulvar vestibule.

For `CCN(CC)CC(=O)Nc1c(C)cccc1C` [lidocaine], the duration of relief was 30 to 60 min.
